According to patent US8772499B2, “TRPV3 modulators” (AbbVie Inc., priority 2011, dated 2014):
Where two headings read alike, the source gives them in different places.

What was measured:
human TRPV3 = molecular target: T1, human TRPV3 (Homo sapiens, UniProt Q8NET8); test: In vitro antagonism of recombinant human TRPV3 activation (FLIPR Tetra calcium assay); assay type: cell-based; settings: HEK293 cells stably expressing human TRPV3, agonist 2-APB at 80 μM
T1 construct: expressed in transfected cells
T1 sequence (Q8NET8 1-790): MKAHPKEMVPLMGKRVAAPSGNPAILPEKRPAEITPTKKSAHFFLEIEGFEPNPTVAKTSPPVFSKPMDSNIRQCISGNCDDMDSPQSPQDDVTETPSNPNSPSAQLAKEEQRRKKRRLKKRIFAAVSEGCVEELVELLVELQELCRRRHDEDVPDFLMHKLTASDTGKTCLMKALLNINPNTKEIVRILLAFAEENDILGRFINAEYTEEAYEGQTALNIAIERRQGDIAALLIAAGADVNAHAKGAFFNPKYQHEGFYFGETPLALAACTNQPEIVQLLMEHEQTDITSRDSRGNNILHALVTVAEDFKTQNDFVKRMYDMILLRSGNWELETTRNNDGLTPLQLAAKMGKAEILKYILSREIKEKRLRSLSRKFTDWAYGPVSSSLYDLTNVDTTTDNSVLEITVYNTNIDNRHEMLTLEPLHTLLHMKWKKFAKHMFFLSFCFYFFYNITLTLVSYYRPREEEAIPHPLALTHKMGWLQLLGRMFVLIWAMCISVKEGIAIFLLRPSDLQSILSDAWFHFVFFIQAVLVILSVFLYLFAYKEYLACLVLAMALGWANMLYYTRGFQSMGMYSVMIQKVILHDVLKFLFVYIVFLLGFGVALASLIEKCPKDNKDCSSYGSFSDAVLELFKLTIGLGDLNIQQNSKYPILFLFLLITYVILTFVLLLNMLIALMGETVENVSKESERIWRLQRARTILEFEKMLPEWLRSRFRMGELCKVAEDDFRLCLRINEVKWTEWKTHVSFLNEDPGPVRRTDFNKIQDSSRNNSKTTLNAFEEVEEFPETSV
How it was run: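 HEK293 cells stably expressing human TRPV3, loaded with Calcium-4 dye for 90–120 min, received compound in DPBS, then 80 μM 2-APB (EC80) 3 min later. Max-minus-min fluorescence expressed as % of 2-APB response without antagonist; IC50 values mostly averages of n≥2 runs.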

[1] = In vitro human microsomal stability assay; assay type: in vitro ADME; settings: for HUMAN MICROSOMAL STABILITY (% REMAINING AFTER 30 MINUTES): microsomes, 0.5 h, 0.5 μM, pH 7.4
How it was run: (§1)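 NADPH-fortified liver microsome incubations at 37° C. served for both species: Sprague-Dawley rat and human.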

[2] = In vitro rat microsomal stability assay; assay type: in vitro ADME, rat (Sprague-Dawley); settings: for RAT MICROSOMAL STABILITY (% REMAINING AFTER 30 MINUTES): Sprague-Dawley, microsomes, 0.5 h, 0.5 μM, pH 7.4
How it was run: as §1

[3] = actual measured value shown parenthetically, in most cases average of at least two runs, read-out: IC50
[4] = reported range, read-out: IC50 (range class)

SMILES | IC50 (human TRPV3; [3]) [µM] | HUMAN MICROSOMAL STABILITY (% REMAINING AFTER 30 MINUTES) [1] [%] | RAT MICROSOMAL STABILITY (% REMAINING AFTER 30 MINUTES) [2] [%] | IC50 (human TRPV3; [4]) [µM] | HUMAN […] (% REMAINING AFTER 30 MINUTES) ([1]; human liver microsomes, 0.5 μM substrate, 0.25 mg/mL microsomal protein, pH 7.4, 37° C., NADPH, 30 minutes) [%] | RAT […] (% REMAINING AFTER 30 MINUTES) ([2]; rat liver microsomes (Sprague-Dawley), 0.5 μM substrate, 0.25 mg/mL microsomal protein, pH 7.4, 37° C., NADPH, 30 minutes) [%]
N[C@H]1CCC[C@H]1[C@@H](O)C1(c2ccc(OC(F)(F)F)cc2)CCC1 [Example 229, (R)-[(1R,2S)-2-aminocyclopentyl]{1-[4-(trifluoromethoxy)phenyl]-cyclobutyl}methanol] | 4.58 | >85 | 80 |  |  | 
OC(c1ccccn1)C1(c2cccc(F)c2)CCCO1 (single isomer, unassigned) [Example 100, (anti)-[2-(3-fluorophenyl)tetrahydrofuran-2-yl](pyridin-2-yl)methanol] | 0.83 | 26 | 2.9 |  |  | 
OC(CC1(c2cccc(C(F)(F)F)c2)CCC1)c1ccccn1 (stereo not shown) [Example 74, 1-(pyridin-2-yl)-2-{1-[3-(trifluoromethyl)phenyl]cyclobutyl}ethanol] | 0.41 | 6.8 | 0.45 |  |  | 
O[C@@H](c1ccccn1)C1(c2cc(C(F)(F)F)ccn2)CC(F)(F)C1 [Example 125, (R)-{3,3-difluoro-1-[4-(trifluoromethyl)pyridin-2-yl]cyclobutyl}(pyridin-2-yl)-methanol] | 18.6 | 53 | 8.8 |  |  | 
O[C@@H](c1ccccn1)C1(c2cc(C(F)(F)F)ccn2)CCC1 [Example 122, (R)-pyridin-2-yl{1-[4-(trifluoromethyl)pyridin-2-yl]cyclobutyl}methanol] | > 20 | 28 | 26 | > 20 |  | 
N[C@@H]1CCC[C@H]1[C@@H](O)C1(c2ccc(Cl)cc2)CCC1 [Example 224, (R)-[(1R,2R)-2-aminocyclopentyl][1-(4-chlorophenyl)cyclobutyl]methanol] | 4.84 | >85 | 70 |  |  | 
OC(c1ccccn1)C1(c2ccc(OC(F)(F)F)cc2)CCCO1 (single isomer, unassigned) [Example 95, (syn)-pyridin-2-yl{2-[4-(trifluoromethoxy)phenyl]tetrahydrofuran-2-yl}methanol] | 1.85 | 57 | 0.61 |  |  | 
CC1(O)CC(c2cccc(C(F)(F)F)c2)(C(O)c2ccccn2)C1 (single isomer, unassigned) [Example 244] | 3.6 | 80 | 77 |  |  | 
OC(C1CCc2cccnc21)C1(c2ccccc2C(F)(F)F)CCC1 (stereo not drawn) [Example 198, (syn)-6,7-dihydro-5H-cyclopenta[b]pyridin-7-yl{1-[2-(trifluoromethyl)-phenyl]cyclobutyl}methanol] | > 20 | 0.05 | <0.01 | > 20 |  | 
OC(c1ccccn1)C1(c2cccc(C(F)(F)F)c2)CC2(C1)OCCO2 (stereo not shown) [Example 242, pyridin-2-yl{2-[3-(trifluoromethyl)phenyl]-5,8-dioxaspiro[3.4]oct-2-yl}-methanol] | 5.1 | 45 | <0.01 |  |  | 
Cc1ccccc1C(C)C1(C(O)c2ccccn2)CCC1 (stereo not shown) [Example 45, {1-[1-(2-methylphenyl)ethyl]cyclobutyl}(pyridin-2-yl)methanol] | 2.22 | 0.03 | 0.02 |  |  | 
OC(C1CCc2cccnc21)C1(c2cccc(C(F)(F)F)c2)CCC1 (stereo not drawn) [Example 185, (anti)-6,7-dihydro-5H-cyclopenta[b]pyridin-7-yl{1-[3-(trifluoromethyl)-phenyl]cyclobutyl}methanol] | > 20 |  |  | > 20 | 0.39 | <0.01

Now from value to molecule, other results behind:

IC50 (human TRPV3; [3]) [µM] | HUMAN MICROSOMAL STABILITY (% REMAINING AFTER 30 MINUTES) [1] [%] | RAT MICROSOMAL STABILITY (% REMAINING AFTER 30 MINUTES) [2] [%] | IC50 (human TRPV3; [4]) [µM] | SMILES | HUMAN […] (% REMAINING AFTER 30 MINUTES) ([1]; human liver microsomes, 0.5 μM substrate, 0.25 mg/mL microsomal protein, pH 7.4, 37° C., NADPH, 30 minutes) [%] | RAT […] (% REMAINING AFTER 30 MINUTES) ([2]; rat liver microsomes (Sprague-Dawley), 0.5 μM substrate, 0.25 mg/mL microsomal protein, pH 7.4, 37° C., NADPH, 30 minutes) [%]
7.5 | 22 | <0.01 |  | CC(C)(C)OC(=O)N1CCC(C2(C(O)c3ccccn3)CCC2)CC1 (stereo not shown) [Example 279, tert-butyl 4-{1-[hydroxy(pyridin-2-yl)methyl]cyclobutyl}piperidine-1-carboxylate] |  | 
0.59 | 12 | 0.33 |  | OC(c1ccccn1)C1(c2cccc(OC(F)(F)F)c2)CCCO1 (single isomer, unassigned) [Example 93, (syn)-pyridin-2-yl{2-[3-(trifluoromethoxy)phenyl]tetrahydrofuran-2-yl}methanol] |  | 
3.32 | 20 | <0.01 |  | OC(c1ccccn1)C1(c2cccc(OC(F)(F)F)c2)CC2(C1)OCCO2 (stereo not shown) [Example 235, pyridin-2-yl{2-[3-(trifluoromethoxy)phenyl]-5,8-dioxaspiro[3.4]oct-2-yl}-methanol] |  | 
5.17 | 73 | <0.01 |  | OC(c1ccccn1)C1(c2ccc(OC(F)(F)F)cc2)CC2(C1)OCCO2 (stereo not shown) [Example 202, pyridin-2-yl{2-[4-(trifluoromethoxy)phenyl]-5,8-dioxaspiro[3.4]oct-2-yl}-methanol] |  | 
> 20 | >85 | 2.0 | > 20 | OC(c1ccccn1)C1(c2ccnc(C(F)(F)F)c2)CC2(C1)OCCO2 (stereo not shown) [Example 297, pyridin-2-yl{2-[2-(trifluoromethyl)pyridin-4-yl]-5,8-dioxaspiro[3.4]oct-2-yl}methanol] |  | 
1.18 | 21 | 1.3 |  | OC(c1ccccn1)C1(c2ccc(Cc3ccccc3)cc2)CCC1 (stereo not shown) [Example 25, [1-(4-benzylphenyl)cyclobutyl](pyridin-2-yl)methanol] |  | 
2.82 | >85 | 34 |  | N[C@H]1CCC[C@@H]1[C@H](O)C1(c2ccc(Cl)cc2)CCC1 [Example 225, (S)-[(1S,2S)-2-aminocyclopentyl][1-(4-chlorophenyl)cyclobutyl]methanol] |  | 
> 20 | 20 | <0.01 | > 20 | OC(C1CCc2cccnc21)C1(c2ccc(OC(F)(F)F)cc2)CCC1 (stereo not drawn) [Example 176, (syn)-6,7-dihydro-5H-cyclopenta[b]pyridin-7-yl{1-[4-(trifluoromethoxy)-phenyl]cyclobutyl}methanol] |  | 
1.67 | 66 | 59 |  | O=C1CC(c2cccc(C(F)(F)F)c2)([C@H](O)c2ccccn2)C1 (single isomer, unassigned) [Example 241] |  | 
> 20 | <0.01 | <0.01 | > 20 | OC(C1CCCc2cccnc21)C1(c2cccc(C(F)(F)F)c2)CCC1 (single isomer, unassigned) [Example 180, (syn)-5,6,7,8-tetrahydroquinolin-8-yl{1-[3-(trifluoromethyl)phenyl]-cyclobutyl}methanol] |  | 
4.9 | 0.11 | <0.01 |  | OC(c1ccccn1)C1(C2CCCC2)CCC1 (stereo not shown) [Example 163, (1-cyclopentylcyclobutyl)(pyridin-2-yl)methanol] |  | 
> 20 | >85 | 76 | > 20 | OC(c1ccccn1)C1(c2ccccn2)CCC1 (stereo not shown) [Example 19, pyridin-2-yl(1-pyridin-2-ylcyclobutyl)methanol] |  | 
